Laboratory results from US7304093B2, “Ketone compounds and compositions for cholesterol management and related uses” (Esperion Therapeutics, Inc., priority 2000, dated 2007).
Like-named read-outs stand apart in the source and are kept apart here.

Key:
primary rat hepatocytes = test: Inhibition of lipid synthesis ([1-14C]-acetate incorporation) in primary cultures of rat hepatocytes; assay type: cell-based; details: Hepatocyte, 4 h incubation with [1-14C]-acetate
Method: Compounds were tested for inhibition of lipid synthesis in primary cultures of rat hepatocytes. Male Sprague-Dawley rats were anesthetized with intraperitoneal injection of sodium pentobarbital (80 mg/kg). Rat hepatocytes were isolated essentially as described by the method of Seglen (Seglen, P. O. Hepatocyte suspensions and cultures as tools in experimental carcinogenesis. J. Toxicol. Environ. Health 1979, 5, 551-560). Hepatocytes were suspended in Dulbecco's Modified Eagles Medium containing 25 mM D-glucose, 14 mM HEPES, 5 mM L-glutamine, 5 mM leucine, 5 mM alanine, 10 mM lactate, 1 mM pyruvate, 0.2% bovine serum albumin, 17.4 mM non-essential amino acids, 20% fetal bovine serum, […] and 20 μg/mL gentamycin) and plated at a density of 1.5×10^5 cells/cm^2 on collagen-coated 96-well plates. Four hours after plating, media was replaced with the same media without serum. Cells were grown overnight to allow formation of monolayer cultures. Lipid synthesis incubation conditions were initially assessed to ensure the linearity of [1-^14C]-acetate incorporation into hepatocyte lipids for up to 4 hours. Hepatocyte lipid synthesis inhibitory activity was assessed during incubations in the presence of 0.25 μCi [1-^14C]-acetate/well (final radiospecific activity in assay is 1 Ci/mol) and 0, 1, 3, 10, 30, 100 or 300 μM of compounds for 4 hours. At the end of the 4-hour incubation period, medium was discarded and cells were washed twice with ice-cold phosphate buffered saline and stored frozen prior to analysis. To determine total lipid synthesis, 170 μl of MicroScint-E® and 50 μl water was added to each well to extract and partition the lipid soluble products to the upper organic phase containing the scintillant. Lipid radioactivity was assessed by scintillation spectroscopy in a Packard TopCount NXT.

female obese Zucker rats = test: Serum lipid and glycemic control variables in chow-fed obese female Zucker rats, daily oral gavage for two weeks; assay type: in vivo, rat; details: Rattus norvegicus, Table 9; for change in vivo at 100 mg/kg: 100 mg/kg daily oral; for change in vivo at 30 mg/kg: 30 mg/kg daily oral
Method: Ten- to twelve-week old (400-500 grams) female Zucker fatty rats Cr1: (Zuc)-faBR were obtained from Charles River Laboratories. Animals were acclimated to the laboratory environment for seven days. During the acclimation and study period, animals were housed by group in shoebox polycarbonate cages on Cellu-Dri bedding. The temperature and humidity in the animals' quarters (68-78° F.; 30-75% RH) were monitored and the airflow in the room was sufficient to provide several exchanges per hour with 100% fresh filtered air. An automatic timing device provided an alternating 12-hour cycle of light and dark. Rats received pelleted Purina Laboratory Rodent Chow® (5001) prior to and during the drug intervention period except for a 6-hour phase prior to blood sampling. Fresh water was supplied ad libitum via an automatic watering system. Compounds were dissolved, suspended by mixing in a dosing vehicle consisting of 1.5% carboxymethylcellulose/0.2% Tween 20 or 20% ethanol and 80% polyethylene glycol-200 [v/v]. Dose volume of vehicle or vehicle plus each compound was set at 0.25% of body weight in order to deliver the appropriate dose. Doses were administered daily by oral gavage, approximately between 8-10 AM. Regarding blood sampling, animals were fasted for 6 hours prior to all blood collections. Prior to and after 7 days of dosing, a 1.0- to 2.0-mL sample of blood was collected by administering O2/CO2 anesthesia and bleeding from the orbital venous plexus. Following 14 days of dosing, blood was collected by cardiac puncture after euthanasia with CO2. All blood samples were processed for separation of serum and stored at −80° C. until analysis. Commercially available kits were used to determine serum triglycerides (Roche Diagnostic Corporation, Kit No. 148899 or Boehringer Mannheim, Kit No. 1488872), total cholesterol (Roche Diagnostic Corporation, Kit No. 450061), non-esterified fatty acids (Wako Chemicals, Kit No. 994-75409) and β-hydroxybutyrate (Wako Chemicals, Kit No. 417-73501 or Sigma Kit. No. 310-0) on a Hitachi 912 Automatic Analyzer (Roche Diagnostic Corporation). In some instances, an in-house cholesterol reagent was used to determine total serum cholesterol levels. Serum lipoprotein cholesterol levels were determined by lipoprotein profile analysis. Lipoprotein profiles were analyzed using gel-filtration chromatography on a Superose 6HR (1×30 cm) column equipped with on-line detection of total cholesterol as described by Kieft et al (Kieft, K. A.; Bocan, T. M.; Krause, B. R. Rapid on-line determination of cholesterol distribution among plasma lipoproteins after high-performance gel filtration chromatography. J. Lipid Res. 1991, 32, 859-866.). The total cholesterol content of each lipoprotein was calculated by multiplying the independent values determined for serum total cholesterol by the percent area of each lipoprotein in the profile. The percent body weight gain and the ratio of liver to body weight is also determined. Selected data are shown as absolute values or as a percent change of the pretreatment values in Tables 8 and 9.
Select compounds (214c, 210c, and 210g) were further evalutated in the Zucker rat by performing a full dose response and measuring additional scrum variables including markers for diabetes (Tables 10-12).

[1] = 168 h, 1 wk, read-out: HDL-Cholesterol, Percent Change from Pre-Treatment
[2] = 168 h, 1 wk, read-out: NonHDL-Cholesterol, Percent Change from Pre-Treatment
[3] = 168 h, 1 wk, read-out: TG, Percent Change from Pre-Treatment
[4] = 336 h, 2 wk, read-out: HDL-Cholesterol, Percent Change from Pre-Treatment
[5] = 336 h, 2 wk, read-out: NonHDL-Cholesterol, Percent Change from Pre-Treatment
[6] = 336 h, 2 wk, read-out: TG, Percent Change from Pre-Treatment
[7] = Table 7, ranges: confidence of estimate insufficient to assign a value

SMILES	IC50 (primary rat hepatocytes; Table 6)	change in vivo at 100 mg/kg (female obese Zucker rats; [1])	change in vivo at 100 mg/kg (female obese Zucker rats; [2])	change in vivo at 100 mg/kg (female obese Zucker rats; [3])	change in vivo at 100 mg/kg (female obese Zucker rats; [4])	change in vivo at 100 mg/kg (female obese Zucker rats; [5])	change in vivo at 100 mg/kg (female obese Zucker rats; [6])	IC50 (primary rat hepatocytes; [7])	change in vivo at 30 mg/kg (female obese Zucker rats; [1])	change in vivo at 30 mg/kg (female obese Zucker rats; [2])	change in vivo at 30 mg/kg (female obese Zucker rats; [3])	change in vivo at 30 mg/kg (female obese Zucker rats; [4])	change in vivo at 30 mg/kg (female obese Zucker rats; [5])	change in vivo at 30 mg/kg (female obese Zucker rats; [6])
CC(C)(C)OC(=O)C1(CCCCC(=O)CCCCC2(C(=O)OC(C)(C)C)CC2)CC1 [Compound 106d, t-Butyl 1-[9-[1-(tert-butoxycarbonyl)cyclopropyl]-5-oxononyl]-1-cyclopropanecarboxylate]	35 µM	–	–	–	–	–	–	–	–	–	–	–	–	–
CCOC(=O)C(C)(C)CCCCCCCC(=O)CCCCCCCC(C)(C)C(=O)OCC [Compound 106n, Diethyl 10-oxo-2,2,18,18-tetramethyl-nonadecanedioate]	13 µM	–	–	–	–	–	–	–	–	–	–	–	–	–
CC(CCCCC(=O)CCCCC(C)(C(=O)O)c1ccccc1)(C(=O)O)c1ccccc1 (centres unmarked) [Compound 210d, 2,12-Dimethyl-7-oxo-2,12-diphenyltridecanedioic acid]	–	43%	36%	-36%	45%	79%	-8%	–	–	–	–	–	–	–
CC(C)Cc1ccc(C(C)(CCCCC(=O)CCCCC(C)(C(=O)O)c2ccc(CC(C)C)cc2)C(=O)O)cc1 (centres unmarked) [Compound 210f, 2,12-Bis-(4-isobutylphenyl)-2,12-dimethyl-7-oxotridecanedioic acid]	–	11%	-40%	-63%	62%	-44%	-66%	100 to 300 µM	–	–	–	–	–	–
CC(C)(CCCCCCC(=O)CCCCCCC(C)(C)C(=O)O)C(=O)O [Compound 210i, 2,2,16,16-Tetramethyl-9-oxoheptadecanedioic acid]	–	–	–	–	–	–	–	9 µM	–	–	–	–	–	–
CC(C)(CO)CCCC(=O)CCCC(C)(C)CO [Compound 214a, 1,11-Dihydroxy-2,2,10,10-tetramethylundecan-6-one]	–	24%	-23%	-31%	2%	28%	0%	27 µM	–	–	–	–	–	–
CC(CO)(CCCC(=O)CCCC(C)(CO)c1ccccc1)c1ccccc1 (centres unmarked) [Compound 214b, 1,11-Dihydroxy-2,10-dimethyl-2,10-diphenylundecan-6-one]	–	-14%	-18%	-20%	-11%	-32%	-17%	100 to 300 µM	–	–	–	–	–	–
CC(CO)(CCCCC(=O)CCCCC(C)(CO)c1ccccc1)c1ccccc1 (centres unmarked) [Compound 214d, 1,13-Dihydroxy-2,12-dimethyl-2,12-diphenyltridecan-7-one]	–	–	–	–	–	–	–	100 to 300 µM	-1%	-30%	-24%	-27%	30%	20%
Cc1ccc(C(C)(CO)CCCCC(=O)CCCCC(C)(CO)c2ccc(C)cc2)cc1 (centres unmarked) [Compound 214e, 1,13-Dihydroxy-2,12-dimethyl-2,12-di-p-tolyltridecan-7-one]	–	–	–	–	–	–	–	100 to 300 µM	–	–	–	–	–	–
CC(C)Cc1ccc(C(C)(CO)CCCCC(=O)CCCCC(C)(CO)c2ccc(CC(C)C)cc2)cc1 (centres unmarked) [Compound 214f, 1,13-Dihydroxy-2,12-bis-(4-isobutylphenyl)-2,12-dimethyltridecan-7-one]	–	-5%	28%	-11%	6%	34%	-15%	–	–	–	–	–	–	–
CC(C)(CO)CCCCCC(=O)CCCCCC(C)(C)CO [Compound 214g, 1,15-Dihydroxy-2,2,14,14-tetramethylpentadecan-8-one]	–	76%	-91%	-92%	135%	-88%	-92%	3 µM	–	–	–	–	–	–
CC(CO)(CCCCCC(=O)CCCCCC(C)(CO)c1ccccc1)c1ccccc1 (centres unmarked) [Compound 214h, 1,15-Dihydroxy-2,14-dimethyl-2,14-diphenylpentadecan-8-one]	–	2%	29%	24%	10%	9%	1%	93 µM	–	–	–	–	–	–
CC(C)(CO)CCCCCCC(=O)CCCCCCC(C)(C)CO [Compound 214i, 1,17-Dihydroxy-2,2,16,16-tetramethylheptadecan-9-one]	–	–	–	–	–	–	–	2 µM	85%	-50%	-58%	61%	-32%	-33%
CC(C)(CO)CCCCC(=O)CCCC(C)(C)CO [Compound 217, 1,12-Dihydroxy-2,2,11,11-tetramethyldodecan-6-one]	–	46%	-26%	-40%	48%	4%	-11%	3 to 10 µM	–	–	–	–	–	–
CC(C)(CO)CCCCC(=O)CCCCC(C)(CO)c1ccccc1 (centres unmarked) [Compound 218, 1,13-Dihydroxy-2,2,12-trimethyl-12-phenyltridecan-7-one]	–	–	–	–	–	–	–	1 µM	-18%	17%	18%	-5%	-8%	-7%
CC(C)(CO)CCCCCC(=O)CCCCC(C)(C)CO [Compound 219, 1,14-Dihydroxy-2,2,13,13-tetramethyltetradecan-7-one]	–	78%	-70%	-85%	78%	-78%	-87%	2 µM	–	–	–	–	–	–
